Legend:
5-HT reuptake = assay: Inhibition of 5-HT reuptake in rat brain synaptosomes (P2 fraction, medulla + pons region); type: biochemical; conditions: for Ki: medulla + pons, Ki from IC50 by Cheng-Prusoff
Description: (§1) a) Studies of the inhibition of 5-HT and NA reuptake
(§2) In order to be able to carry out these in vitro studies, synaptosomes are freshly isolated from areas of rat brain. A so-called “P2” fraction is used in each case, which is prepared exactly according to the procedure of Gray, E. G. and Whittaker, V. P. (J. Anat. 76, 79-88, 1962). For NA reuptake, these vesicular particles are isolated from the hypothalamus of male rat brains, and for 5-HT reuptake, they are isolated from the medulla +pons region.
(§3) The following characteristic data were determined for the NA and 5-HT reuptake: • NA uptake: Km=0.32±0.11 μM • 5-HT uptake: Km=0.084±0.011 μM (in each case N=4, i.e. mean values ± SEM from 4 independent test series which were carried out in triplicate parallel tests).
(§4) A detailed description of the method can be found in the publication of Frink, M., Hennies, H. H., Englberger, W. et al. (Arzneim.-Forsch./Drug Res. 46 (III), 11, 1029-1036, 1996) (the batch can also be carried out on microtitre plates (250 μl/well) at room temperature).
(§5) In addition to % inhibitions at fixed concentrations of test substance (e.g. 1×10^−6 M or 1×10^−5 M in the batch), dose dependencies were also checked. IC50 values were obtained thereby which can be converted into inhibitor constants (Ki) according to the “Cheng-Prusoff equation” (Cheng, Y. C. and Prusoff, W. H., Biochem. Pharmacol. 22, 3099-3108, 1973). The IC50 values were obtained with the aid of the “Figure P” computer program (Version 6.0, Biosoft, Cambridge, England). Km values were calculated according to Lineweaver, H. and Burk, D. (J. Am. Chem. Soc. 56, 658-666, 1934). The “Ligand” computer program (Version 4, Biosoft, England) was used to show KD values.

NA reuptake = assay: Inhibition of NA reuptake in rat brain synaptosomes (P2 fraction, hypothalamus); type: biochemical; conditions: for Ki: hypothalamus, Ki from IC50 by Cheng-Prusoff
Description: as §1, §2, §3, §4, §5

[1] = test system: phenylquinone-induced writhing reactions; assay: Analgesic activity in the writhing test in the mouse; type: in vivo
Description: c) Studies of Analgesic Activity in the Writhing Test in the Mouse
The writhing test in the mouse is a modification of the method according to Hendershot L C, Forsaith, J, J Pharmacol Exp Ther 125: 237-240 (1959).
0.3 ml/animal of a 0.02% aqueous phenylquinone solution, with the addition of 5% ethanol, is administered intraperitoneally to the animals as pain stimulus. This solution is administered 30 minutes (test substance p.o.) or 10 minutes (test substance i.v.) after administration of the test substance. The pain-induced stretching movements (so-called writhing reactions=straightening of the body with extension of the rear extremities) are recorded 5 to 20 minutes after the administration of phenylquinone. The animals treated with the test substance are compared with a control group that received physiological saline. Size of the group n=10.

[2] = test system: duration of the phase of immobility; assay: Antidepressant activity in the forced swimming test (Porsolt test) in the mouse; type: in vivo; conditions: for Relative duration of the phase of immobility versus control: i.p.
Description: d) Study of Antidepressant Activity in the Forced Swimming Test (Porsolt Test) in the Mouse The studies to determine the antidepressant activity of the compounds of formula I according to the invention were carried out in the forced swimming test (Porsolt test) in the mouse (Porsolt, R. et al., Arch. Int. Pharmacodyn. Vol. 229, p. 327-336 (1977)). Male mice (20-25 g body weight) were placed individually for a period of 6 minutes into a flat water tank from which they were unable to escape and accordingly were forced to swim. After some time, the animals gave up their attempts to swim and entered a phase of immobility. In the interval of from 2 to 6 minutes after introduction of the animal, the duration of the phase of immobility was determined. Test substance and vehicle groups each comprise 10 animals. Changes in the duration of the phase of immobility are stated relative to the vehicle control. Antidepressants induce a shortening of the phase of immobility.

[3] = test system: formalin-induced nociceptive behaviour (chronic pain component); assay: Analgesic activity in the formalin test in the mouse; type: in vivo
Description: b) Studies of Analgesic Activity in the Formalin Test in the Mouse The formalin test (Dubuisson, D. and Dennis, S. G., 1977, Pain, 4, 161-174) represents a model for acute and chronic pain. In the studies presented here, the chronic pain component was evaluated. By means of a single formalin injection into the dorsal side of a rear paw, a biphase nociceptive reaction is induced in freely mobile test animals; the reaction is assessed by observing three markedly different behaviour patterns. Formalin is injected subcutaneously in a volume of 20 μl and a concentration of 1% into the dorsal side of the right rear paw of each animal. The specific behavioural changes differing from normal behaviour (score 0), such as lifting (score 1) and shaking of the paw (score 2), as well as biting and licking reactions (score 3), are observed and recorded continuously at 3-minute intervals for 60 minutes after the formalin injection. […] The size of the group was 10 animals (n=10). On the basis of the PR calculations, the activity of the substance was determined in percent as the change relative to a control. The ED50 was determined by means of regression analysis.

SMILES | Inhibition of 5-HT reuptake (in words) (5-HT reuptake) | Ki (5-HT reuptake) | melting point | Inhibition of NA reuptake (in words) (NA reuptake) | Ki (NA reuptake) | Inhibition of the nociceptive behaviour, writhing test (in words) [1] | ED50 ([1]; i.v., phenylquinone i.p.) | Shortening of the phase of immobility, forced swimming test (in words) [2] | Relative duration of the phase of immobility versus control ([2]; 10 mg/kg) | Relative duration of the phase of immobility versus control ([2]; 21.5 mg/kg) | Relative duration of the phase of immobility versus control ([2]; 31.6 mg/kg, ***p < 0.001) | Relative duration of the phase of immobility versus control ([2]; 46.4 mg/kg, ***p < 0.001) | Inhibition of the nociceptive behaviour, formalin test (in words) [3] | ED50 ([3]; iv, chronic pain component)
CN(C)CC1=C(Cc2ccc(Cl)cc2)CCCCCC1.Cl [Example 2b, [2-(4-chlorobenzyl)-cyclooct-1enylmethyl]-dimethylamine; hydrochloride] | dose-dependent inhibition | 30 nM | 234 to 237 °C | dose-dependent inhibition | 340 nM |  |  |  |  |  |  |  |  | 
CN(C)CC1=C(Cc2ccc(Cl)cc2)CCC1.Cl |  |  | 191 °C |  |  |  |  |  |  |  |  |  |  | 
CN(C)CC1=C(Cc2ccc(Cl)cc2)CCCCC1.Cl [Example 1, [2-(4-Chlorobenzyl)-cyclohept-1-enylmethyl]-dimethylamine; hydrochloride] | dose-dependent inhibition | 3 nM |  | dose-dependent inhibition | 30 nM | dose-dependent inhibition | 3.04 mg/kg | significant shortening of the phase of immobility | +9% | −34% | −67%*** | −76%*** | dose-dependent inhibition | 4.71 mg/kg

From patent publication US7342133B2, “Substituted amino compounds as 5-HT/NA uptake inhibitors” (Gruenenthal GmbH, priority 2004, dated 2008)
